This is an account of results in patent US12280018B2, “Antiseptic compositions” (RHT LIMITED, priority 2020, dated 2025).

The structures appear in SMILES notation.

The subject of assay [1] is PolySeed® BOD Seed Inoculum (blend of broad spectrum bacteria). In words: Durability test (bacteria spiked regularly on treated agar plate, swab viable count). It is filed as cell-based. The note with it: bacteria solution spiked every 60 minutes. The procedure: To evaluate the durability of bacteria inhibition of the exemplary compositions, durability test by regularly spiking a fixed amount of bacteria into the sample is performed and the procedures are incorporated herein by reference.
• Group A: Agar plate with 0.5 mL distilled water; • Group B: Agar plate with 0.5 mL 75% isopropyl alcohol (IPA); • Group C: Agar plate with 0.5 g of tested exemplary composition.
Bacteria strain used: PolySeed® BOD Seed Inoculum Capsules (1 caspsule dissolved into 500 mL Distilled Water) (Interlab), which contains a blend of broad spectrum bacteria designed specifically as a seed inoculum for the Biochemical Oxygen Demand (BOD 5) test as conducted in accordance to Standard Methods of the Examination of Water and Wastewater. PolySeed® is an EPA approved BOD 5 seed inoculum that has been used to seed both municipal and industrial wastes for almost 20 years.
Agar: Trypticase Soy Agar (TSA)
Incubation condition: 48 hours at 30±1° C.
The above three sample group agar plates are used as the sample matrices of different initial situation for spiking 0.5 ml bacteria solution for every 60 minutes, i.e.: there was an on-going process of spiking bacteria at time 0, 60, 120, 180, 240, 300 minutes;
A swab testing is carried out every 30 minutes from matrix samples of each group to test for the viable count of bacteria at the time interval.
• AM: 0.5 ml bacteria solution is added at T0-10 min; • Sample A1: To swab from AM at T0; Sample A2: To swab from AM at T1; • AM: 0.5 ml bacteria solution is added at T2-10 min; • Sample A3: To swab from AM at T2; Sample A4: To swab from AM at T3; • AM: 0.5 ml bacteria solution is added at T4-10 min; and so forth. Table 2 summarized the testing schedule for durability test.

The test system of assay [2] is PolySeed® BOD Seed Inoculum. In words: Volatility test (duration of bacteria inhibition on treated agar plate). The assay is classed as cell-based. The method, then:
To study the duration on ability of bacteria inhibition of an exemplary composition, a volatility test is performed.
• Group A: Agar plate with 0.5 mL distilled water; • Group B: Agar plate with 0.5 mL 75% isopropyl alcohol (IPA); • Group C: Agar plate with 0.5 g of tested exemplary composition. Bacteria strain used: PolySeed® BOD Seed Inoculum Capsules (1 capsule dissolved into 500 mL Distilled Water) (Interlab) Agar: Trypticase Soy Agar (TSA) Incubation condition: 48 hours at 30±1° C. Testing Procedure 0.5 mL bacteria solution is add into the agar plate groups A, B and C at the time interval of Tx. as defined in Table 1.3.
After T10, bacteria solution is spiked to all the agar plates except agar blank.
Swab test is carried out to test for the viable count of bacteria at the time interval Tx.

For the molecule `CC(C)O` [75% IPA, isopropyl alcohol], the CFU/plate in assay [1] (T0 (0 min)) was found to be 8 CFU/plate; in assay [1] (T1 (30 min)), 28 CFU/plate; in assay [1] (T2 (60 min)), 53 CFU/plate; in assay [1] (T3 (90 min)), 89 CFU/plate; in assay [1] (T4 (120 min)), 254 CFU/plate; in assay [1] (T5 (150 min)), 346 CFU/plate. The CFU/plate entry in assay [1] (T6 (180 min)) is listed as “Uncountable (the bacterial colonies are too numerous to be counted in the agar plate, e.g., more than 335 colonies per plate)”; in assay [1] (T7 (210 min)), “Uncountable (the bacterial colonies are too numerous to be counted in the agar plate, e.g., more than 335 colonies per plate)”; in assay [1] (T8 (240 min)) it was “Uncountable (the bacterial colonies are too numerous to be counted in the agar plate, e.g., more than 335 colonies per plate)”; in assay [1] (T9 (270 min)), “Uncountable (the bacterial colonies are too numerous to be counted in the agar plate, e.g., more than 335 colonies per plate)”; in assay [1] (T10 (300 min)), “Uncountable (the bacterial colonies are too numerous to be counted in the agar plate, e.g., more than 335 colonies per plate)”; in assay [2] (T0 (0 min)), 54 CFU/plate. For the same molecule, the CFU/plate in assay [2] (T1 (30 min)) was found to be 62 CFU/plate; in assay [2] (T2 (60 min)) it was 50 CFU/plate; in assay [2] (T3 (90 min)) it was 45 CFU/plate; in assay [2] (T4 (120 min)), 49 CFU/plate; in assay [2] (T5 (150 min)), 55 CFU/plate; in assay [2] (T6 (180 min)), 43 CFU/plate. The CFU/plate in assay [2] (T7 (210 min)) was determined as 37 CFU/plate; in assay [2] (T8 (240 min)), 44 CFU/plate; in assay [2] (T9 (270 min)) it was 49 CFU/plate; in assay [2] (T10 (300 min)) it was 0 CFU/plate.
